# Entries after “also recorded” stand apart in the source; their conditions may differ. Ends that are not written are not given here.
# Tests used:
# [1] = test system: patient-derived glioma stem cells; assay: IFNG release assay following overnight coculture of CAR-T cells with GSC; type: cell-based, human; details: GSC vs DGC of same patient, H2110 and media negative controls
# Source text: Capitalizing on the unique ability of peptides EYA and VAV to bind to GSC, a series of chimeric antigen receptors (CARs) were designed that display a peptide derived from the EYA and VAV sequences, arranged in tandem, at the N-terminus of the CAR molecule. The role of the tandem peptides in the N-terminus of the CAR is to detect GSC, which in turn will activate the T cell through the CD3ζ domain in the C-terminus. Most CARs utilize antibody-derived molecules (Abate-Daga D, L et al. Hum Gene Ther. 2014 25(12):1003-12), or natural ligands (Brown C E, et al. N Engl J Med. 2016 375(26):2561-9; Brown C E, et al. Clin Cancer Res. 2012 18(8):2199-209) to receptors expressed by target cells to perform this function. Seven CAR constructs were generated based on combinations of peptides EYA and VAV (VAV-EYA and EYA-VAV), and of VAV plus five additional peptides (termed 1-VAV, 2-VAV, 3-VAV, 4-VAV, and 5-VAV) identified in the biopanning assays (FIG. 7). CAR cDNA was cloned into a retroviral expression vector used for clinical CAR-T cell manufacture, called pMSGV1, and the resulting constructs were used to transduce human primary T cells. The expression of the CAR molecules was first analyzed by Western blot against the CD3ζ chain of the CAR. Six of the seven CAR designs were expressed in transduced cells (FIG. 8). […]
# glioblastoma tissue = assay: Fluorescent peptide staining of glioblastoma and normal brain tissue; type: binding, human; details: peptide conjugated with fluorescein
# Experimental: Patient brain tissues were obtained from Cleveland Clinic Tissue Bank. Cells (GSC and DGC) or frozen-sectioned tissues (glioblastoma and normal brain) were fixed in 4% paraformaldehyde and permeabilized with 0.1% Triton X-100 and stained using following primary antibodies: EYA1 (Aviva System Biology, ARP32434_P050), SOX2 (R&D system, MAB2018), vWF (Abcam, ab68548), CD31 (Santa Cruz Biotechnology, sc-1506), MYC (Cell signaling, 5605), and SIX1 (Abcam, ab84329) primary antibodies were incubated overnight at 4° C., followed species appropriate secondary antibodies with incubation for 3.5 hours at room temperature. Nuclei were stained with DAPI, and slides were then mounted with FluorSave (Calbiochem, 345789). Images were taken using a Leica DM4000 uplight microscopy. For DAB staining, tissues were incubated with rabbit anti-EYA1 or anti-c-Myc antibody overnight at 4° C., followed goat anti-rabbit biotinylated secondary antibody with incubation for 3.5 hours at room temperature. After incubation with antibodies, tissues were stained using VECTASTAIN Elite ABC HRP Kit (VECTOR LABORATORIES, PK-6100) and DAB Peroxidase Substrate Kit (VECTOR LABORATORIES, SK-4100) according to the manufacturer's instructions. After counterstaining with 50% hematoxylin, images were taken. […]
# [2] = test system: intracranial glioma patient-derived xenografts; assay: In vivo imaging after tail vein injection, intracranial xenograft; parameters: species or system NSG mice
# Source text: (§1) Cyanine 5.5-conjugated peptide AWEFYFP (SEQ ID NO:2) and control peptide GGGSGGG (SEQ ID NO:33) were synthesized by LifeTein, LCC. (Hillsborough, N.J., USA). GSCs were implanted into subcutaneously (5×10^5 cells) or intracranially (5×10^4 cells) into 4 weeks old NSG mice under a Cleveland Clinic Foundation Institutional Animal Care and Use Committee approved protocol. After 4 weeks, cyanine 5.5-conjugated peptides were delivered into the mice via intravenous injection. Signals from injected peptides were monitored by fluorescence channel of IVIS Spectrum CT In Vivo Imaging System (PerkinElmer, USA) for 72 hours.
# [3] = test system: glioblastoma xenografted into the subcutaneous flank; assay: In vivo imaging after tail vein injection, subcutaneous flank xenograft; parameters: species or system NSG mice
# Source text: as §1
# GSCs = assay: Binding of Cy5.5-conjugated peptide to GSCs / GSC tumor sphere; parameters: species or system human; details: peptide conjugated with Cyanine 5.5
# Experimental: Cells were dissociated to singles with TrypLE Express (Thermo Fisher Scientific) and recovered in Neurobasal medium at 37° C. for 1-2 hours. Before the incubation with primary antibodies, cells were blocked with 2% BSA in PBS for 30-50 minutes. Primary antibodies were treated at 4° C. for 40-90 minutes. Anti-EYA1 antibody (Aviva System Biology, ARP32434_P050), anti-IgG control antibody, 5(6)-carboxyfluorescein-conjugated peptide AWEFYFP, and cyanine 5.5-conjugated peptide AWEFYFP were used as primary antibodies. After washing with 1% BSA in PBS, cells were incubated with Alexa Fluor 488-conjugated goat anti-rabbit IgG antibody (Invitrogen, A11008) at 4° C. for 40 minutes. Unstained- or secondary antibody treated-cells without a primary antibody were used as negative controls. Labeled cells were analyzed by flow cytometry.
substance,measurement,setting,value
5-VAV: CAR with peptide #5 linked to peptide VAV (binding agent SEQ ID NO:27) (NWYWVYPGGGGSGGGGSGGGGSSSQPFWSGSTSGSGKPGSGEGSTKG) [Peptide 5-VAV],IFNG release / recognition of GSC,[1],"specific recognition of GSC (but not differentiated glioma cells, DGC, derived from the same patient)"
"AWEFYFP (also: carboxyfluorescein conjugate) [GBM-IC2, used fluorescein-conjugated for staining]",binding to glioblastoma tissue relative to normal brain,glioblastoma tissue,"specifically bound to glioblastoma tissue, relative to normal brain; also recorded: preferential binding to glioblastoma tissue"
same,binding to SOX2 expressing cells (co-staining with GSC marker SOX2),glioblastoma tissue; double staining with anti-SOX2,greater binding of GBM-IC2 to SOX2 expressing cells; also recorded: co-staining with SOX2
"GBM-IC2-Cy5.5: GBM-IC2 peptide conjugated with Cyanine 5.5, a near infrared marker (AWEFYFP; also: Cy5.5 conjugate)",histological analysis of peptide signal in intracranial tumor,[2]; ex vivo brain sections,positive fluorescent signal in the intracranial tumor samples
same,"tumor targeting by imaging, intracranial xenograft","[2]; tail vein injection, imaging 20 minutes post-injection, in vivo and ex vivo",strong specificity of binding of tumor in the intracranial cavity; also recorded: specific targeting of the intracranial tumor
same,penetration of the BBB,"[2]; tail vein injection, intracranial xenograft",penetrate the BBB
same,earliest time of tumor binding after injection,[3]; flank xenograft,20 min
same,"tumor targeting by imaging, flank xenograft",[3]; in vivo and ex vivo,high specificity of binding to the tumor; also recorded: specific targeting of the tumor four hours after injection in a dose dependent manner
same,binding to GSCs,GSCs,binding to GSCs in a concentration-dependent manner
same,binding to GSCs,GSCs; listed as GBM-IC2 conjugated with Cy5.5,preferential binding to GSC tumor sphere
